Like-named read-outs stand apart in the source and are kept apart here.
Tests used:
[1] = target: CYP3A4 (Homo sapiens, UniProt P08684); assay: Cytochrome P450; details: for CYP 3A4 Inhibition - IC50: 15 min incubation, 37 °C, mean ± SD of three experiments
[2] = target: T1, pregnane X receptor (PXR) (Homo sapiens, UniProt O75469); assay type: cell-based; details: for Fold induction in PXR activity: HepG2, 24 h, mean ± SD, NA = No activation
T1 sequence (O75469 1-434): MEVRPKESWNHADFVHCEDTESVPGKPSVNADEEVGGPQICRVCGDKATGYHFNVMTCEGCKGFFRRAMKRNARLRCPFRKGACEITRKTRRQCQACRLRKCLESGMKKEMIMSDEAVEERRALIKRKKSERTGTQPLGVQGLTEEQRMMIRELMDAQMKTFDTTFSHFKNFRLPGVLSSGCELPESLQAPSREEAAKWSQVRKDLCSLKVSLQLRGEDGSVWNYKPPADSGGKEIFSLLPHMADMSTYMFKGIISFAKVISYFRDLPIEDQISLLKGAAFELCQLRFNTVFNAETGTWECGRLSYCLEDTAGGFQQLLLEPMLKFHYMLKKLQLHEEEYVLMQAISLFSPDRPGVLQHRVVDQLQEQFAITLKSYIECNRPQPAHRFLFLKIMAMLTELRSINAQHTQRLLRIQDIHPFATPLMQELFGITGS

Sequence of CYP3A4 (P08684 whole entry): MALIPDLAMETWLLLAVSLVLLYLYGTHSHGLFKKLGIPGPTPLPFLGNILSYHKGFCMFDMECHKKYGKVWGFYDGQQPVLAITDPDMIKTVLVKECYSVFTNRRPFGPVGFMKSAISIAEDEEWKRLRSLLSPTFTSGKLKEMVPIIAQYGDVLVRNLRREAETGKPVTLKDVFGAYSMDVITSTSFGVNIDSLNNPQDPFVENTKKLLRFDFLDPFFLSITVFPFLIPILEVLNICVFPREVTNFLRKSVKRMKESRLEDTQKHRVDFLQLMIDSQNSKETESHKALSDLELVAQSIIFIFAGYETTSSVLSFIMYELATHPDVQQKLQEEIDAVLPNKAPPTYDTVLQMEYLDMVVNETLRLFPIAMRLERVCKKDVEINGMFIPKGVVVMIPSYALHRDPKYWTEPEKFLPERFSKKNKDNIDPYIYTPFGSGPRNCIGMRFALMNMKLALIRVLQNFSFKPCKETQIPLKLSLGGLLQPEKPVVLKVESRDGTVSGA

Molecule | Fold induction in PXR activity ([2]; compounds at 12.5 μg/mL) [fold] | Fold induction in PXR activity ([2]; compounds at 25 μg/mL) [fold] | Fold induction in PXR activity ([2]; compounds at 50 μg/mL) [fold] | CYP 3A4 Inhibition - IC50 [1] [µg/mL] | other results
COC(=O)C1=CCC[C@H]2[C@]3(C)C[C@@H](c4ccoc4)OC(=O)[C@@H]3C[C@@H](O[C@@H]3O[C@H](CO)[C@@H](O)[C@H](O)[C@H]3O)[C@@]12C [Borapetoside C, borapetoside C] |  |  |  |  | IC50 [1]: 69.9 µM
cordifoliside C | 1.22 ± 0.06 | 1.47 ± 0.03 | 1.95 ± 0.04 |  | 
C[C@@]12C[C@@H](c3ccoc3)OC(=O)[C@@H]1CC[C@]1(C)[C@H]2[C@@H]2C=C[C@@]1(O)C(=O)O2 [Columbin, columbin] |  | 2.89 ± 0.62 | 3.58 ± 0.61 |  | PXR activation (fold) ([2]; concentration not given): 3 fold
COC(=O)C1=C[C@H](O)C[C@H]2[C@]3(C)C[C@@H](c4ccoc4)OC(=O)[C@H]3C[C@H](O[C@@H]3O[C@H](CO)[C@@H](O)[C@H](O)[C@H]3O)[C@@]12C [Borapetoside B, borapetoside B] |  |  |  |  | IC50 [1]: 181 µM
baenzigeride A | 1.18 ± 0.09 | 1.54 ± 0.16 | 1.96 ± 0.16 |  | 
CO[C@H]1/C=C/O[C@@]2(C)Oc3c(C)c(O)c4c(O)c(c(/C=N/N5CCN(C)CC5)c(O)c4c3C2=O)NC(=O)/C(C)=C\C=C\[C@H](C)[C@H](O)[C@@H](C)[C@@H](O)[C@@H](C)[C@H](OC(C)=O)[C@@H]1C [Rifampicin, reference compound] |  |  |  |  | fold induction at 24 h, 5 µM ([2]; human): 3.24 ± 0.15; fold induction at 24 h, 10 µM ([2]; human): 3.25 ± 0.08
COC(=O)C1=C[C@H](O)C[C@H]2[C@]3(C)C[C@@H](c4ccoc4)OC(=O)[C@@H]3C[C@@H](O[C@@H]3O[C@H](CO)[C@@H](O)[C@H](O)[C@H]3O)[C@@]12C [(2R,5R,6R,8R,9S, 10S,12S)-15,16-epoxy-2-hydroxy-6-O-(β-D-glucopyranosyl)-cleroda-3, 13(16),14-trien-17,12-olid-18-oicacidmethyl ester] | 0.93 ± 0.04 | 1.01 ± 0.13 | 1.39 ± 0.11 | 29.00 ± 0.82 | 
COC(=O)C1=CCCC2C3(C)CC(c4ccoc4)OC(=O)C3=CC(OC3OC(CO)C(O)C(O)C3O)C12C (stereo not shown) [Borapetoside F, borapetoside F] |  |  |  | 13.00 ± 0.82 | 
CC(=O)O[C@@H]1[C@@H]2[C@H](CC[C@@]3(O)C(=O)O[C@H](c4ccoc4)C[C@@]23C)[C@H](O[C@@H]2O[C@H](CO)[C@@H](O)[C@H](O)[C@H]2O)C[C@@H]1O [Tinosineside A, tinosineside A] | 1.42 ± 0.06 | 1.50 ± 0.00 | 1.53 ± 0.11 | 45.00 ± 5.72 | 
COc1cc(/C=C/CO)cc(OC)c1O[C@@H]1O[C@H](CO)[C@@H](O)[C@H](O[C@@H]2OC[C@](O)(CO)[C@H]2O)[C@H]1O [Tinosinen, tinosinen] | 1.48 ± 0.06 | 1.67 ± 0.02 | 1.42 ± 0.06 | >100 | 
C=C(CC[C@@H](C)[C@H]1CC[C@@]2(C)[C@@H]3CC[C@H]4[C@H](C)[C@@H](O)CC[C@@]45C[C@@]35CC[C@]12C)C(C)C [Cycloeucalenol, cycloeucalenol] |  |  |  |  | fold induction at 24 h, 12.5 μg/mL ([2]; human): 1.42 ± 0.06; fold induction at 24 h, 25 μg/mL ([2]; human): 1.91 ± 0.23; fold induction at 24 h, 50 μg/mL ([2]; human): 2.42 ± 0.3
COc1cc(/C=C/C(=O)NCCc2ccc(O)cc2)ccc1O [N-trans-feruloyl tyramine] |  |  |  |  | IC50 [1]: 8.62 µM; fold induction at 24 h, 12.5 μg/mL ([2]; human): 1.59 ± 0.07; fold induction at 24 h, 25 μg/mL ([2]; human): 2.16 ± 0.27; fold induction at 24 h, 50 μg/mL ([2]; human): 2.29 ± 0.41
tinosposinoside | 1.30 ± 0.08 | 1.55 ± 0.08 | 1.52 ± 0.15 |  | 
COc1cc2c(cc1OC)-c1cc3ccc(OC)c(OC)c3c[n+]1CC2 [Palmatine, palmatine] | 1.08 ± 0.00 | 1.30 ± 0.00 | 1.43 ± 0.00 | 34.00 ± 0.00 | 

Reference: paper PMC11094663 (Journal of ethnopharmacology, 2022)
